By fraction unbound is commonly meant the share of the substance not bound to proteins or other matrix. Broadly, the microsomal CLint is the capacity of the preparation to metabolise the compound, expressed as a volume cleared per time. The term Vmax denotes the rate approached at saturating substrate. As a reminder, the Km is the concentration of substrate that gives half-maximal velocity. A word on the pKa: it is the negative logarithm of the acid dissociation constant.

Read-outs that look alike come from different tables or passages of the source.

Data set [1] can be described thus: Non-specific binding of compounds to magnetizable beads alone. The following applies: 30 min incubation of beads (5.3×10^9 beads), bioanalysis of supernatant.
Data set [2] in a line: in vitro. The following applies: human, microsomes.
The conditions of data set [3]: HLM 0.005 mg/ml.
The nature of data set [4]: in vitro. The following applies: human, pH 7.4.
The nature of data set [5]: in vitro. Particulars: human, microsomes. The source holds these as a separate data set.
A further data set has as its system CYP3A. The data set is described as follows: CYP3A-mediated midazolam 1′hydroxylation kinetics in HLM suspensions vs HLM-beads. Further details: Km, times higher with HLM-beads than with HLM suspensions: unit not given beside the values. The following applies: for microsomal CLint / Km: human; for microsomal CLint: pH 7.4; for Km: pH 7.4, probe midazolam (1′-hydroxylation).

Data set [6] is described as follows: Microsomal binding (fu,mic) using HLM-beads. Particulars: HLM-beads; HLM 1.0 mg/ml; compound 1.0 μM; (SD).
For data set [7] the following is noted: in vivo; cited from earlier work.
The conditions of data set [8]: human, microsomes, 6 h, 1 μM.
The conditions of data set [9]: cited from earlier work.

On to `Cc1ncc2n1-c1ccc(Cl)cc1C(c1ccccc1F)=NC2` [Midazolam, midazolam], for which the “non-specific binding to the beads” value in [1] is recorded as “not observed”. For the same molecule, in the data set “in vitro [2]”, the fraction unbound at 6 h, 1 μM amounted to 0.98. In data set [3] (HLM suspensions, no new HLM added, up to 160 min), the “depletion of parent midazolam” value was “No perceptible depletion”. Besides, the “metabolism of midazolam on exchange of used HLM-beads with fresh HLM-beads” value in data set [3] (HLM-bead relay every 20 minutes) is reported as “continued metabolism”. Besides, the CLhep predicted at 1 μM in the data set “in vitro [4]” is 9.47 mL/min/kg. The molecule also registered a microsomal CLint at 1 μM in the data set “in vitro [4]” of 842 µL/min/mg. The fraction unbound at 5 min, 1 μM in “in vitro [5]” was found to be 0.76. Besides, the Vmax is given as 2002 ± 66 pmol/min/mg in the data set on CYP3A (HLM suspensions) and 4350 ± 249^sig pmol/min/mg in the data set with CYP3A (HLM-beads). Also, the “Km, times higher with HLM-beads than with HLM suspensions” value with CYP3A (HLM-beads vs HLM suspensions) is given as about 3 ×. For the same molecule, the microsomal CLint was 2830 µL/min/mg in the data set on CYP3A (human liver microsomes (suspension)) and 2130 µL/min/mg in the data set with CYP3A. Moreover, the Michaelis constant (Km) in the data set with CYP3A (human liver microsomes bound to beads (HLM-beads)) amounted to 2.04 ± 0.23 µM; in the data set on CYP3A (human liver microsomes in suspension (no beads)), 0.612 ± 0.086 µM. Further, the “fu,mic” value in [6] is 0.53 (0.02). For the same molecule, the “blood clearance reported in the literature” value in [7] is listed as 8.59 mL/min/kg.
Take `CC(=O)CC(c1ccccc1)c1c(O)c2ccccc2oc1=O` (stereo not shown) [Warfarin, warfarin]: the fraction unbound at 6 h, 1 μM in the data set “in vitro [2]” was 0.94. Also, in data set [8], the “fu,mic” value was 0.86 (0.08). Moreover, in data set [9], the pKa is 5.0.

The values above are taken from patent US20210223237A1, “COMPOSITIONS AND METHODS FOR STUDYING DRUG METABOLISM” (Boehringer Ingelheim International GmbH, priority 2020, published 2021).
